Tests used:
barnyardgrass [1] = experiment: Test B pre-/postemergence herbicide test; assay type: in vivo, Echinochloa crus-galli; details: 0 = no effect, 100 = complete control, preemergence
Method in brief: (§1)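 Formulation: non-phytotoxic solvent mix with surfactant. Timing: preemergence on seed and postemergence on 2–18 cm plants, applied concurrently. Readout after 13–15 d greenhouse: visual 0–100 control rating against controls.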

Surinam grass = experiment: Test B pre-/postemergence herbicide test; assay type: in vivo, Urochloa decumbens; details: for Surinam Grass plant response rating: postemergence, scale 0 (no effect) to 100 (complete control)
Method in brief: (§2)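 Visual rating, 0 (no effect) to 100 (complete control), versus untreated controls after 13–15 d in greenhouse. Pre- and postemergence applications (postemergence plants 2–18 cm, 1–4 leaves); flooded paddy arm at 2-leaf stage. Compounds in non-phytotoxic solvent plus surfactant.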

cocklebur = experiment: Test B pre-/postemergence herbicide test; assay type: in vivo, Xanthium strumarium; details: for Cocklebur plant response rating: postemergence, scale 0 (no effect) to 100 (complete control)
Method in brief: as §1

corn = experiment: Test B pre-/postemergence herbicide test; assay type: in vivo, Zea mays; details: for Corn plant response rating: postemergence, scale 0 (no effect) to 100 (complete control)
Method in brief: as §2

large crabgrass = experiment: Test B pre-/postemergence herbicide test; assay type: in vivo, Digitaria sanguinalis; details: for Crabgrass, Large plant response rating: postemergence, scale 0 (no effect) to 100 (complete control)
Method in brief: as §2

giant foxtail = experiment: Test B pre-/postemergence herbicide test; assay type: in vivo, Setaria faberi; details: for Foxtail, Giant plant response rating: postemergence, scale 0 (no effect) to 100 (complete control)
Method in brief: as §2

lambsquarters = experiment: Test B pre-/postemergence herbicide test; assay type: in vivo, Chenopodium album; details: for Lambsquarters plant response rating: postemergence, scale 0 (no effect) to 100 (complete control)
Method in brief: as §2

morningglory = experiment: Test B pre-/postemergence herbicide test; assay type: in vivo, Ipomoea coccinea; details: for Morningglory plant response rating: postemergence, scale 0 (no effect) to 100 (complete control)
Method in brief: as §1

pigweed = experiment: Test B pre-/postemergence herbicide test; assay type: in vivo, Amaranthus retroflexus
Method in brief: as §2

rice [2] = experiment: Test B pre-/postemergence herbicide test; assay type: in vivo, Oryza sativa; details: 0 = no effect, 100 = complete control, preemergence
Method in brief: as §2

velvetleaf = experiment: Test B pre-/postemergence herbicide test; assay type: in vivo, Abutilon theophrasti; details: for Velvetleaf plant response rating: postemergence, scale 0 (no effect) to 100 (complete control)
Method in brief: as §2

blackgrass = experiment: Test B postemergence herbicide test; assay type: in vivo, Alopecurus myosuroides; details: postemergence, visual rating, scale 0 (no effect) to 100 (complete control)
Method in brief: (§3)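 Scale 0–100: zero equals no visible effect, 100 complete control, judged by eye relative to controls. Timing: 13 to 15 days in greenhouse post-treatment. Growth stage at spraying: two leaves (paddy) or one to four leaves, 2–18 cm (postemergence).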

wheat = experiment: Test B postemergence herbicide test; assay type: in vivo, Triticum aestivum; parameters: key to Wheat plant response rating: 0 = no effect, 100 = complete control; details: postemergence, visual rating, scale 0 (no effect) to 100 (complete control)
Method in brief: (§4)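 Read-out: visual comparison with controls, scored 0 to 100, where 100 means complete control and 0 no effect. Formulated chemicals were applied postemergence to plants 2–18 cm tall (1- to 4-leaf), or to flooded-paddy plants at the 2-leaf stage, then held 13 to 15 days under glass.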

wild oat = experiment: Test B postemergence herbicide test; assay type: in vivo, Avena fatua; details: postemergence, visual rating, scale 0 (no effect) to 100 (complete control)
Method in brief: as §4

rice [3] = experiment: Test B flooded paddy test; assay type: in vivo, Oryza sativa; details: 1000 g ai/ha, visual rating, scale 0 to 100 (0 no effect, 100 complete control), 13 to 15 days
Method in brief: as §4

[4] = system: small flower umbrella sedge; experiment: Test B flooded paddy test; assay type: in vivo, Cyperus difformis; details: 1000 g ai/ha, visual rating, scale 0 to 100 (0 no effect, 100 complete control), 13 to 15 days
Method in brief: as §3

ducksalad [5] = experiment: Test B flooded paddy test; assay type: in vivo, Heteranthera limosa; details: 1000 g ai/ha, visual rating, scale 0 to 100 (0 no effect, 100 complete control), 13 to 15 days
Method in brief: as §3

barnyardgrass [6] = experiment: Test B flooded paddy test; assay type: in vivo, Echinochloa crus-galli; details: 1000 g ai/ha, visual rating, scale 0 to 100 (0 no effect, 100 complete control), 13 to 15 days
Method in brief: as §3

rice [7] = experiment: Test C flooded paddy test; assay type: in vivo, Oryza sativa
Method in brief: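 Injury scored visually against controls on a 0 (no effect) to 100 (complete control) scale, 12 to 14 days after treatment in greenhouse. Flooded paddy plants treated at 2-leaf stage; postemergence plants at 1- to 4-leaf stage, 2 to 18 cm tall.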

[8] = system: smallflower umbrella sedge; experiment: Test C flooded paddy test; assay type: in vivo, Cyperus difformis
ducksalad [9] = experiment: Test C flooded paddy test; assay type: in vivo, Heteranthera limosa
barnyardgrass [10] = experiment: Test C flooded paddy test; assay type: in vivo, Echinochloa crus-galli
Method in brief: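 Postemergence sprays were applied to plants 2 to 18 cm tall (1- to 4-leaf stage); in the flooded paddy test, barnyardgrass was grown to the 2-leaf stage. After 12 to 14 days in a greenhouse, injury was visually rated against untreated controls on a 0–100 scale (100 = complete control).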

[11] = 125 g ai/ha, 0 = no effect, 100 = complete control, preemergence
[12] = 500 g ai/ha, visual rating, 0 = no effect, 100 = complete control, preemergence
[13] = 62 g ai/ha, scale 0 to 100 (0 no effect, 100 complete control)
[14] = 125 g ai/ha, scale 0 to 100 (0 no effect, 100 complete control)
[15] = 250 g ai/ha, scale of 0 to 100, 0 is no effect, 100 is complete control
[16] = 500 g ai/ha, visual rating after 12 to 14 days, scale 0 to 100 (0 no effect, 100 complete control)

## CCN(C)C(=O)c1cccc(NC(=O)c2sc(C(C)(C)C)nc2C)c1 [Compound 227]
Barnyardgrass [1]; 125 g ai/ha
  Barnyardgrass plant response rating (0 to 100 scale): 0
Barnyardgrass [1]; 500 g ai/ha, visual rating
  Plant response rating, Barnyardgrass: 60
Surinam grass; [11]
  Surinam Grass plant response rating (0 to 100 scale): 30
Surinam grass; [12]
  Plant response rating, Surinam Grass: 70
Surinam grass; 125 g ai/ha, visual rating
  Surinam Grass plant response rating: 10
Surinam grass; 500 g ai/ha, visual rating
  Surinam Grass plant response rating: 30
cocklebur; [11]
  Cocklebur plant response rating (0 to 100 scale): 0
cocklebur; [12]
  Plant response rating, Cocklebur: 0
cocklebur; 125 g ai/ha, visual rating
  Cocklebur plant response rating: 20
cocklebur; 500 g ai/ha, visual rating
  Cocklebur plant response rating: 30
corn; [11]
  Corn plant response rating (0 to 100 scale): 0
corn; [12]
  Plant response rating, Corn: 50
corn; 125 g ai/ha, visual rating
  Corn plant response rating: 30
corn; 500 g ai/ha, visual rating
  Corn plant response rating: 40
Large crabgrass; [11]
  Crabgrass, Large plant response rating (0 to 100 scale): 40
Large crabgrass; [12]
  Plant response rating, Crabgrass, Large: 100
Large crabgrass; 125 g ai/ha, visual rating
  Crabgrass, Large plant response rating: 30
Large crabgrass; 500 g ai/ha, visual rating
  Crabgrass, Large plant response rating: 30
Giant foxtail; [11]
  Foxtail, Giant plant response rating (0 to 100 scale): 10
Giant foxtail; [12]
  Plant response rating, Foxtail, Giant: 70
Giant foxtail; 125 g ai/ha, visual rating
  Foxtail, Giant plant response rating: 10
Giant foxtail; 500 g ai/ha, visual rating
  Foxtail, Giant plant response rating: 60
lambsquarters; [11]
  Lambsquarters plant response rating (0 to 100 scale): 0
lambsquarters; [12]
  Plant response rating, Lambsquarters: 90
lambsquarters; 125 g ai/ha, visual rating
  Lambsquarters plant response rating: 50
lambsquarters; 500 g ai/ha, visual rating
  Lambsquarters plant response rating: 70
morningglory; [11]
  Morningglory plant response rating (0 to 100 scale): 0
morningglory; [12]
  Plant response rating, Morningglory: 20
morningglory; 125 g ai/ha, visual rating
  Morningglory plant response rating: 50
morningglory; 500 g ai/ha, visual rating
  Morningglory plant response rating: 60
pigweed; [11]
  Pigweed plant response rating (0 to 100 scale): 0
pigweed; [12]
  Plant response rating, Pigweed: 100
pigweed; postemergence, 125 g ai/ha, visual rating, scale 0 (no effect) to 100 (complete control)
  Pigweed plant response rating: 20
Rice [2]; 125 g ai/ha
  Rice plant response rating (0 to 100 scale): 10
Rice [2]; 500 g ai/ha, visual rating
  Plant response rating, Rice: 70
velvetleaf; [11]
  Velvetleaf plant response rating (0 to 100 scale): 30
velvetleaf; [12]
  Plant response rating, Velvetleaf: 100
velvetleaf; 125 g ai/ha, visual rating
  Velvetleaf plant response rating: 20
velvetleaf; 500 g ai/ha, visual rating
  Velvetleaf plant response rating: 70
blackgrass; 125 g ai/ha
  Blackgrass plant response rating: 20
blackgrass; 500 g ai/ha
  Blackgrass plant response rating: 30
wheat; 125 g ai/ha
  Wheat plant response rating: 0
wheat; 500 g ai/ha
  Wheat plant response rating: 10
Wild oat; 125 g ai/ha
  Oat, Wild plant response rating: 0
Wild oat; 500 g ai/ha
  Oat, Wild plant response rating: 0
Rice [3]
  Rice plant response rating: 70
[4]
  Sedge, Umbrella plant response rating: 50
Ducksalad [5]
  Ducksalad plant response rating: 80
Barnyardgrass [6]
  Barnyardgrass plant response rating: 70
Rice [7]; [13]
  Rice plant response rating: 0
Rice [7]; [14]
  Rice plant response rating: 0
Rice [7]; [15]
  Rice plant response rating: 25
Rice [7]; [16]
  Plant response rating, Rice: 55
[8]; [13]
  Sedge, Umbrella plant response rating: 0
[8]; [14]
  Sedge, Umbrella plant response rating: 0
[8]; [15]
  Sedge, Umbrella plant response rating: 0
[8]; [16]
  Plant response rating, Sedge, Umbrella: 15
Ducksalad [9]; [13]
  Ducksalad plant response rating: 0
Ducksalad [9]; [14]
  Ducksalad plant response rating: 0
Ducksalad [9]; [15]
  Ducksalad plant response rating: 0
Ducksalad [9]; [16]
  Plant response rating, Ducksalad: 55
Barnyardgrass [10]; [13]
  Barnyardgrass plant response rating: 0
Barnyardgrass [10]; [14]
  Barnyardgrass plant response rating: 0
Barnyardgrass [10]; [15]
  Barnyardgrass plant response rating: 0
Barnyardgrass [10]; [16]
  Plant response rating, Barnyardgrass: 0

From patent publication US20060069132A1, “Azolecarboxamide herbicides” (priority 2004, published 2006)
